In article PMC9667936, “Functional mapping of the 14-3-3 hub protein as a guide to design 14-3-3 molecular glues” (Chemical Science, 2022):
Where a SMILES comes first, the peptide text is derived from it. [ ]: non-standard residue; d: D form. The star is where a group is joined. ξ: configuration not given here. FITC = O=C1OC2(c3ccc(O)cc3Oc3cc(O)ccc32)c2ccc(NC(=S)*)cc21; Phe(4-NO2) = N[C@@H](Cc1ccc([N+](=O)[O-])cc1)C(=O)O; ξAla(4-thiazolyl) = NC(Cc1cscn1)C(=O)O; pS = N[C@@H](COP(=O)(O)O)C(=O)O; β3hS = N[C@@H](CO)CC(=O)O; Nva = CCC[C@H](N)C(=O)O; AEA = NCCOCC(=O)O; βAla = NCCC(=O)O

Molecular target: T1, 14-3-3γ (Homo sapiens, UniProt P61981)
T1 construct: made in house; host or cells: E. coli NiCo21 (DE3)
T1 sequence (P61981 1-247): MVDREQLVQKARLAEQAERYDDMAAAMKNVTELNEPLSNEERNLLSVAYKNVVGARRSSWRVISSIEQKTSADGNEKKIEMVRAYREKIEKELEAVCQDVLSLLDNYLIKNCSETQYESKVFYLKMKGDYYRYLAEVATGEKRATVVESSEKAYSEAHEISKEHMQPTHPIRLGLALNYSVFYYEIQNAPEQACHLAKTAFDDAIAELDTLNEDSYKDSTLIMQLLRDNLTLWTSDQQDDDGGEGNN
Test: Fluorescence anisotropy (FA) binary binding study: 14-3-3 titrated to fluorescein-labelled peptide
Details: for individual ΔΔG of removed residue / ΔΔG (to previous): FA; for individual ΔΔG of removed residue: ΔG relative to the previously truncated peptide; for fold change in binding affinity on truncation: FA KD relative to the previous (one amino acid longer) peptide
Protocol: 14-3-3γ protein expression (FP/ITC experiments)
(§1) A pPROEX HTb expression vector encoding the human 14-3-3 protein gamma (14-3-3γ) with an N-terminal his6-tag was transformed by heat shock into NiCo21 (DE3) competent cells. Single colonies were cultured in 50 mL LB medium (100 µg/mL ampicillin). After overnight incubation at 37 °C, cultures were transferred to 2 L TB media (100 µg/mL ampicillin, 1 mM MgCl2) and incubated at 37 °C until an OD600 nm of 0.8-1.2 was reached. Protein expression was then induced with 0.4 mM isopropyl-β-d-thiogalactoside (IPTG), and cultures were incubated overnight at 18 °C. Cells were harvested by centrifugation (8600 rpm, 20 minutes, 4 °C) and resuspended in lysis buffer (50 mM Hepes, pH 8.0, 300 mM NaCl, 12.5 mM imidazole, 5 mM MgCl2, 2 mM βME) containing cOmplete™ EDTA-free Protease Inhibitor Cocktail tablets (1 tablet/100 ml lysate) and benzonase (1 µl/100 ml). After lysis using a C3 Emulsiflex-C3 homogenizer (Avestin), the cell lysate was cleared by centrifugation (20000 rpm, 30 minutes, 4 °C) and purified using Ni2+-affinity chromatography (Ni-NTA superflow cartridges, Qiagen).
Typically two 5 mL columns (flow 5 mL/min) were used for a 2 L culture in which the lysate was loaded on the column washed with 10 CV wash buffer (50 mM Hepes, pH 8.0, 300 mM NaCl, 25 mM imidazole, 2 mM βME) and eluted in several fractions (2-4 CV) of elution buffer (50 mM Hepes, pH 8.0, 300 mM NaCl, 250 mM imidazole, 2 mM βME). Fractions containing the 14-3-3 protein were combined and dialyzed into 25 mM HEPES pH 8.0, 100 mM NaCl, 10 mM MgCl2, 500 µM TCEP. Finally, the protein was concentrated to ∼60 mg/mL, analyzed Q-Tof LC/MS, and aliquots were flash-frozen for storage at […]
as §1, with “sigma truncated after T231 (14-3-3σΔc) and” for “gamma (14-3-3γ)”, “tablet/ 100” for “tablet/100”, “µl/ 100” for “µl/100”, “ml).” for “ml). After lysis using a C3 Emulsiflex-C3 homogenizer (Avestin), the cell lysate was cleared by centrifugation (20000 rpm, 30 minutes, 4 °C) and purified using Ni2+-affinity chromatography (Ni-NTA superflow cartridges, Qiagen).”
After lysis using a C3 Emulsiflex-C3 homogenizer (Avestin), the cell lysate was cleared by centrifugation (20000 rpm, 30 minutes, 4 °C) and purified using Ni2+-affinity chromatography (Ni-NTA superflow cartridges, Qiagen). Typically two 5 mL columns were used for a 2 L culture in which the lysate was loaded on the column washed with 10 CV wash buffer (50 mM Hepes, pH 8.0, 300 mM NaCl, 25 mM imidazole, 2 mM βME) and eluted with several fractions (2-4 CV) of elution buffer (50 mM Hepes, pH 8.0, 300 mM NaCl, 250 mM imidazole, 2 mM βME). Fractions containing the 14-3-3 protein were combined and dialyzed into 25 mM HEPES pH 8.0, 200 mM NaCl, 10 mM MgCl2, 2 mM βME. In addition, 1 mg TEV was added for each 100 mg purified protein to remove the purification tag. The cleaved sample was then again loaded on a 10 mL Ni-NTA column to separate the cleaved product from the expression tag and residual uncleaved protein. The flowthrough was loaded on a Superdex 75 pg 16/60 size exclusion column (GE Life Sciences) using 25 mM HEPES, 100 mM NaCl, 10 mM MgCl2, 500 μM TCEP (adjusted to pH=8.0) as running buffer. Fractions containing the 14-3-3 protein were pooled and concentrated to ∼60 mg/mL, analyzed Q-Tof LC/MS, and aliquots were flash-frozen for storage at −80 […]
The peptides 1 and 2a-d were synthesized on 50 µmol scale on a Rink amide MBHA resin […]

[1] = Table S2, FA KD of peptide divided by KD of previous (one amino acid longer) peptide, mean of n = 3
[2] = Table S2, KD / KD of previous (one amino acid longer) peptide, replicate 1
[3] = Table S2, KD / KD of previous (one amino acid longer) peptide, replicate 2
[4] = Table S2, KD / KD of previous (one amino acid longer) peptide, replicate 3
[5] = Table S2, calculated from FA KD, mean of n = 3
[6] = Table S2, from FA KD, replicate 1
[7] = Table S2, from FA KD, replicate 2
[8] = Table S2, from FA KD, replicate 3
[9] = Table S2, ΔG minus ΔG of previous peptide, replicate 1
[10] = Table S2, ΔG minus ΔG of previous peptide, replicate 2
[11] = Table S2, ΔG minus ΔG of previous peptide, replicate 3
[12] = Table S2, ΔG of peptide minus ΔG of previous (one amino acid longer) peptide, mean of n = 3
[13] = Table S3, FA KD of peptide divided by KD of previous (one amino acid longer) peptide, mean of n = 3
[14] = Table S3, KD / KD of previous peptide, replicate 1
[15] = Table S3, KD / KD of previous peptide, replicate 2
[16] = Table S3, KD / KD of previous peptide, replicate 3
[17] = Table S3, calculated from FA KD, mean of n = 3
[18] = Table S3, from FA KD, replicate 1
[19] = Table S3, from FA KD, replicate 2
[20] = Table S3, from FA KD, replicate 3
[21] = Table S3, ΔG minus ΔG of previous peptide, replicate 1
[22] = Table S3, ΔG minus ΔG of previous peptide, replicate 2
[23] = Table S3, ΔG minus ΔG of previous peptide, replicate 3
[24] = Table S3, ΔG of peptide minus ΔG of previous (one amino acid longer) peptide, mean of n = 3

SMILES | individual ΔΔG of removed residue | Fold change to previous [1] | Fold change to previous [2] | Fold change to previous [3] | Fold change to previous [4] | ΔG [5] | ΔG [6] | ΔG [7] | Fold change to previous [13] | Fold change to previous [14] | Fold change to previous [15] | Fold change to previous [16] | ΔG [17] | ΔG [18] | ΔG [19] | ΔG [20] | ΔΔG (to previous) [21] | ΔΔG (to previous) [22] | ΔΔG (to previous) [23] | ΔΔG (to previous) [24] | further results
CCC[C@H](N)C(=O)N[C@@H](Cc1ccc([N+](=O)[O-])cc1)C(=O)NC(Cc1cscn1)C(=O)N[C@@H](COP(=O)(O)O)C(=O)N[C@@H](Cc1ccc([N+](=O)[O-])cc1)C(=O)N[C@@H](CO)CC(=O)NCCC(=O)N[C@@H](Cc1ccc([N+](=O)[O-])cc1)C(=O)N[C@@H](CCCCN)C(=O)N[C@@H](C)C(=O)N[C@@H](CCCCNC(=S)Nc1ccc2c(c1)C(=O)OC21c2ccc(O)cc2Oc2cc(O)ccc21)C(N)=O (stereo partly drawn) [2a] (H-[Nva][Phe(4-NO2)][ξAla(4-thiazolyl)][pS][Phe(4-NO2)][β3hS][βAla][Phe(4-NO2)]KAK(FITC)-NH2) | only minor energy contributions | 1,98 | 1,72 | 2,56 | 1,66 | -10,13 kcal/mol | -10,29 kcal/mol | -10,00 kcal/mol | – | – | – | – | – | – | – | – | – | – | – | – | ΔG [8]: -10,11 kcal/mol; ΔΔG (to previous) [9]: 0,32 kcal/mol; ΔΔG (to previous) [10]: 0,56 kcal/mol; ΔΔG (to previous) [11]: 0,30 kcal/mol; ΔΔG (to previous) [12]: 0,39 kcal/mol
C[C@H](NC(=O)[C@H](CCCCN)NC(=O)[C@H](Cc1ccc([N+](=O)[O-])cc1)NC(=O)CCNC(=O)C[C@H](CO)NC(=O)[C@H](Cc1ccc([N+](=O)[O-])cc1)NC(=O)[C@H](COP(=O)(O)O)NC(=O)C(Cc1cscn1)NC(=O)[C@@H](N)Cc1ccc([N+](=O)[O-])cc1)C(=O)N[C@@H](CCCCNC(=S)Nc1ccc2c(c1)C(=O)OC21c2ccc(O)cc2Oc2cc(O)ccc21)C(N)=O (stereo partly drawn) [2b] (H-[Phe(4-NO2)][ξAla(4-thiazolyl)][pS][Phe(4-NO2)][β3hS][βAla][Phe(4-NO2)]KAK(FITC)-NH2) | only minor energy contributions | 2,86 | 3,64 | 2,32 | 2,61 | -9,52 kcal/mol | -9,53 kcal/mol | -9,50 kcal/mol | – | – | – | – | – | – | – | – | – | – | – | – | ΔG [8]: -9,54 kcal/mol; ΔΔG (to previous) [9]: 0,76 kcal/mol; ΔΔG (to previous) [10]: 0,50 kcal/mol; ΔΔG (to previous) [11]: 0,57 kcal/mol; ΔΔG (to previous) [12]: 0,61 kcal/mol
CCC[C@H](NC(=O)[C@@H](CCCCN)NC(=O)COCCNC(=S)Nc1ccc2c(c1)C(=O)OC21c2ccc(O)cc2Oc2cc(O)ccc21)C(=O)N[C@@H](Cc1ccc([N+](=O)[O-])cc1)C(=O)NC(Cc1cscn1)C(=O)N[C@@H](COP(=O)(O)O)C(=O)N[C@@H](Cc1ccc([N+](=O)[O-])cc1)C(=O)N[C@@H](CO)CC(=O)NCCC(=O)N[C@@H](Cc1ccc([N+](=O)[O-])cc1)C(N)=O (stereo partly drawn) [2e] ({FITC-AEA}-[dK][Nva][Phe(4-NO2)][ξAla(4-thiazolyl)][pS][Phe(4-NO2)][β3hS][βAla][Phe(4-NO2)]-NH2) | – | – | – | – | – | – | – | – | 5,55 | 5,54 | 7,13 | 3,98 | -9,53 kcal/mol | -9,60 kcal/mol | -9,39 kcal/mol | -9,59 kcal/mol | 1,01 kcal/mol | 1,16 kcal/mol | 0,82 kcal/mol | 1,00 kcal/mol | fold change in binding affinity on truncation: five-fold reduction
CCC[C@H](NC(=O)[C@@H](CCCCN)NC(=O)COCCNC(=S)Nc1ccc2c(c1)C(=O)OC21c2ccc(O)cc2Oc2cc(O)ccc21)C(=O)N[C@@H](Cc1ccc([N+](=O)[O-])cc1)C(=O)NC(Cc1cscn1)C(=O)N[C@@H](COP(=O)(O)O)C(=O)N[C@@H](Cc1ccc([N+](=O)[O-])cc1)C(=O)N[C@@H](CO)CC(=O)NCCC(N)=O (stereo partly drawn) [2f] ({FITC-AEA}-[dK][Nva][Phe(4-NO2)][ξAla(4-thiazolyl)][pS][Phe(4-NO2)][β3hS][βAla]-NH2) | 1.5 kcal/mol | – | – | – | – | – | – | – | 12,39 | 12,69 | 11,53 | 12,93 | -8,04 kcal/mol | -8,10 kcal/mol | -7,95 kcal/mol | -8,07 kcal/mol | 1,50 kcal/mol | 1,45 kcal/mol | 1,52 kcal/mol | 1,49 kcal/mol | fold change in binding affinity on truncation: 12 fold
CCC[C@H](NC(=O)[C@@H](CCCCN)NC(=O)COCCNC(=S)Nc1ccc2c(c1)C(=O)OC21c2ccc(O)cc2Oc2cc(O)ccc21)C(=O)N[C@@H](Cc1ccc([N+](=O)[O-])cc1)C(=O)NC(Cc1cscn1)C(=O)N[C@@H](COP(=O)(O)O)C(=O)N[C@@H](Cc1ccc([N+](=O)[O-])cc1)C(=O)N[C@@H](CO)CC(N)=O (stereo partly drawn) [2g] ({FITC-AEA}-[dK][Nva][Phe(4-NO2)][ξAla(4-thiazolyl)][pS][Phe(4-NO2)][β3hS]-NH2) | 0.4 kcal/mol | – | – | – | – | – | – | – | 1,85 | 1,92 | 1,84 | 1,79 | -7,67 kcal/mol | -7,71 kcal/mol | -7,59 kcal/mol | -7,73 kcal/mol | 0,39 kcal/mol | 0,36 kcal/mol | 0,34 kcal/mol | 0,36 kcal/mol | –
